In ChEMBL document CHEMBL2169819, “Synthesis and biological evaluation of 2-amino-3-(4-chlorobenzoyl)-4-[(4-arylpiperazin-1-yl)methyl]-5-substituted-thiophenes. effect of the 5-modification on allosteric enhancer activity at the A1 adenosine receptor” (J Med Chem, 2012):
Active and inactive are the calls of the source. The rule behind the calls is not given here.

target: T1, Adenosine receptor A1 (Homo sapiens) (UniProt P30542); assay: Allosteric enhancing activity at human adenosine A1 receptor expressed in CHO cells assessed as increase in CCPA-induced [3H]DPCPX displacement at 10 uM after 90 mins relative to control; type: cell-based
T1 sequence (whole entry): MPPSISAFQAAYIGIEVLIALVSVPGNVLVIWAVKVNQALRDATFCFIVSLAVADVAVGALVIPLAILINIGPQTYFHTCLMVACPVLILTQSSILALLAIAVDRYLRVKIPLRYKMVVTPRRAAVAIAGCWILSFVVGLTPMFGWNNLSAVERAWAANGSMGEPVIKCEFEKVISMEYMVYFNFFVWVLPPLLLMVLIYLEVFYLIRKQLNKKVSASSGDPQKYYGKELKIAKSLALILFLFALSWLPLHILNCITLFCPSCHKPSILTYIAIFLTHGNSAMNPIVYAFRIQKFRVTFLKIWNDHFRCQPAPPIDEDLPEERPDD

| Compound | Ratio Ki |
| --- | --- |
| Nc1sc(-c2ccccc2)c(CN2CCN(c3ccc(OC(F)(F)F)cc3)CC2)c1C(=O)c1ccc(Cl)cc1 | 8.4 |
| Nc1sc(-c2ccc(Cl)cc2)c(CN2CCN(c3ccc(F)cc3)CC2)c1C(=O)c1ccc(Cl)cc1 | 8.3 |
| Nc1scc(CN2CCN(c3ccc(OC(F)(F)F)cc3)CC2)c1C(=O)c1ccc(Cl)cc1 | 5.3 |
| Cc1sc(N)c(C(=O)c2cccc(C(F)(F)F)c2)c1C | 1.6 |

Other lines, results leading:

| Ratio Ki | Compound |
| --- | --- |
| 13 | Nc1sc(-c2ccc(Cl)cc2)c(CN2CCN(c3cccc(C(F)(F)F)c3)CC2)c1C(=O)c1ccc(Cl)cc1 |
| 9.5 | Nc1sc(-c2ccc(Cl)cc2)c(CN2CCN(c3ccccc3)CC2)c1C(=O)c1ccc(Cl)cc1 |
| 6.4 | Cc1sc(N)c(C(=O)c2ccc(Cl)cc2)c1CN1CCN(c2ccccc2)CC1 |
| 6.1 | Cc1sc(N)c(C(=O)c2ccc(Cl)cc2)c1CN1CCN(c2cccc(Cl)c2)CC1 |

target: T1, Adenosine receptor A1 (Homo sapiens); assay: Allosteric enhancing activity at human adenosine A1 receptor expressed in CHO cells assessed as increase in [3H]-2-chloro-N6-cyclopentyladenosine Bmax at 10 uM after 90 mins relative to control; type: cell-based

| Compound | fold change (FC) |
| --- | --- |
| Nc1sc(-c2ccccc2)c(CN2CCN(c3ccc(OC(F)(F)F)cc3)CC2)c1C(=O)c1ccc(Cl)cc1 | 9.4 |
| Nc1sc(-c2ccc(Cl)cc2)c(CN2CCN(c3ccc(F)cc3)CC2)c1C(=O)c1ccc(Cl)cc1 | 9.5 |
| Nc1scc(CN2CCN(c3ccc(OC(F)(F)F)cc3)CC2)c1C(=O)c1ccc(Cl)cc1 | 6.8 |
| Cc1sc(N)c(C(=O)c2cccc(C(F)(F)F)c2)c1C | 1.3 |

Next, values leading:

| fold change (FC) | Compound |
| --- | --- |
| 11.8 | Nc1sc(-c2ccc(Cl)cc2)c(CN2CCN(c3cccc(C(F)(F)F)c3)CC2)c1C(=O)c1ccc(Cl)cc1 |
| 10.2 | Nc1sc(-c2ccc(Cl)cc2)c(CN2CCN(c3ccccc3)CC2)c1C(=O)c1ccc(Cl)cc1 |
| 6.8 | Cc1sc(N)c(C(=O)c2ccc(Cl)cc2)c1CN1CCN(c2ccccc2)CC1 |
| 6.5 | Cc1sc(N)c(C(=O)c2ccc(Cl)cc2)c1CN1CCN(c2cccc(Cl)c2)CC1 |

target: T2, Adenosine receptor A3 (Homo sapiens) (UniProt P0DMS8); assay: Displacement of [3H]MRE-3008-F20 from human adenosine A3 receptor expressed in CHO cells at 10 uM after 120 mins by scintillation counting; type: cell-based
T2 sequence (whole entry): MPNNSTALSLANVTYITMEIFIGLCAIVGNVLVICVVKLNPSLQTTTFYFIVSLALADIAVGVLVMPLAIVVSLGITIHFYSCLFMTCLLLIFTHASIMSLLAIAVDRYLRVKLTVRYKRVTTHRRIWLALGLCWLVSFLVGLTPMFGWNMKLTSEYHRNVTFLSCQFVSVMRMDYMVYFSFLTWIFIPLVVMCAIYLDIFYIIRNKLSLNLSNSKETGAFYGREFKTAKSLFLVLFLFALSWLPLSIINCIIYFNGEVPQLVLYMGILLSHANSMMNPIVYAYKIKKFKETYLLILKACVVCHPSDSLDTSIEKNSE

| Compound | inhibition [%] |
| --- | --- |
| Nc1sc(-c2ccccc2)c(CN2CCN(c3ccc(OC(F)(F)F)cc3)CC2)c1C(=O)c1ccc(Cl)cc1 | < 12 |
| Nc1sc(-c2ccc(Cl)cc2)c(CN2CCN(c3ccc(F)cc3)CC2)c1C(=O)c1ccc(Cl)cc1 | < 12 |

Further lines, results first:

| inhibition [%] | Compound |
| --- | --- |
| < 12 | Nc1sc(-c2ccc(Cl)cc2)c(CN2CCN(c3cccc(C(F)(F)F)c3)CC2)c1C(=O)c1ccc(Cl)cc1 |
| < 12 | Nc1sc(-c2ccc(Cl)cc2)c(CN2CCN(c3ccccc3)CC2)c1C(=O)c1ccc(Cl)cc1 |
| < 12 | Cc1sc(N)c(C(=O)c2ccc(Cl)cc2)c1CN1CCN(c2ccccc2)CC1 |
| < 12 | Cc1sc(N)c(C(=O)c2ccc(Cl)cc2)c1CN1CCN(c2cccc(Cl)c2)CC1 |

target: Adenosine receptor A2a (Homo sapiens) (UniProt P29274); assay: Displacement of [3H]ZM241385 from human adenosine A2A receptor expressed in CHO cells at 10 uM after 120 mins by scintillation counting; type: cell-based
Sequence (P29274 whole entry): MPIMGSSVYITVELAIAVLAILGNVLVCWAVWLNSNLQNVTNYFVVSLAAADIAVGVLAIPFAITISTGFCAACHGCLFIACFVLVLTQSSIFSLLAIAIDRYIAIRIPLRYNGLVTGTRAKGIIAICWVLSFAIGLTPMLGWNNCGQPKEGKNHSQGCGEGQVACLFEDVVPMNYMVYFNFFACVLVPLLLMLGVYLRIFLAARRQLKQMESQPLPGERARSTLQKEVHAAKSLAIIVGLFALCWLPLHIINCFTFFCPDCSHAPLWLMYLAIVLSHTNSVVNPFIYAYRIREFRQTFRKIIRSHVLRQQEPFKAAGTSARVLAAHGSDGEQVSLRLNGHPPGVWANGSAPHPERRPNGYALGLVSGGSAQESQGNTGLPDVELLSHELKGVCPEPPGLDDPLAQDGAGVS

| Compound | inhibition |
| --- | --- |
| Nc1sc(-c2ccccc2)c(CN2CCN(c3ccc(OC(F)(F)F)cc3)CC2)c1C(=O)c1ccc(Cl)cc1 | < 12% |
| Nc1sc(-c2ccc(Cl)cc2)c(CN2CCN(c3ccc(F)cc3)CC2)c1C(=O)c1ccc(Cl)cc1 | < 12% |
| Cc1sc(N)c(C(=O)c2cccc(C(F)(F)F)c2)c1C | inactive |

Further lines, results first:

| inhibition | Compound |
| --- | --- |
| < 12% | Nc1sc(-c2ccc(Cl)cc2)c(CN2CCN(c3cccc(C(F)(F)F)c3)CC2)c1C(=O)c1ccc(Cl)cc1 |
| < 12% | Nc1sc(-c2ccc(Cl)cc2)c(CN2CCN(c3ccccc3)CC2)c1C(=O)c1ccc(Cl)cc1 |
| < 12% | Cc1sc(N)c(C(=O)c2ccc(Cl)cc2)c1CN1CCN(c2ccccc2)CC1 |
| < 12% | Cc1sc(N)c(C(=O)c2ccc(Cl)cc2)c1CN1CCN(c2cccc(Cl)c2)CC1 |

target: T1, Adenosine receptor A1 (Homo sapiens); assay: Displacement of [3H]DPCPX from human adenosine A1 receptor expressed in CHO cells at 10 uM after 120 mins by scintillation counting; type: cell-based

| Compound | inhibition |
| --- | --- |
| Nc1sc(-c2ccccc2)c(CN2CCN(c3ccc(OC(F)(F)F)cc3)CC2)c1C(=O)c1ccc(Cl)cc1 | < 12% |
| Nc1sc(-c2ccc(Cl)cc2)c(CN2CCN(c3ccc(F)cc3)CC2)c1C(=O)c1ccc(Cl)cc1 | < 12% |
| Cc1sc(N)c(C(=O)c2cccc(C(F)(F)F)c2)c1C | inactive |

Continued, values first:

| inhibition | Compound |
| --- | --- |
| < 12% | Nc1sc(-c2ccc(Cl)cc2)c(CN2CCN(c3cccc(C(F)(F)F)c3)CC2)c1C(=O)c1ccc(Cl)cc1 |
| < 12% | Nc1sc(-c2ccc(Cl)cc2)c(CN2CCN(c3ccccc3)CC2)c1C(=O)c1ccc(Cl)cc1 |
| < 12% | Cc1sc(N)c(C(=O)c2ccc(Cl)cc2)c1CN1CCN(c2ccccc2)CC1 |
| < 12% | Cc1sc(N)c(C(=O)c2ccc(Cl)cc2)c1CN1CCN(c2cccc(Cl)c2)CC1 |

target: T1, Adenosine receptor A1 (Homo sapiens); assay: Allosteric enhancing activity at human adenosine A1 receptor expressed in CHO cells assessed as inhibition of forskolin-stimulated cAMP accumulation at 100 nM incubated for 10 mins prior to forskolin-stimulation measured after 5 mins by competition protein binding assay in presence of 2-chloro-N6-cyclopentyladenosine; type: functional, cell-based

| Compound | inhibition [%] |
| --- | --- |
| Nc1sc(-c2ccccc2)c(CN2CCN(c3ccc(OC(F)(F)F)cc3)CC2)c1C(=O)c1ccc(Cl)cc1 | 69 |
| Nc1sc(-c2ccc(Cl)cc2)c(CN2CCN(c3ccc(F)cc3)CC2)c1C(=O)c1ccc(Cl)cc1 | 68 |
| Cc1sc(N)c(C(=O)c2cccc(C(F)(F)F)c2)c1C | 22 |

The next lines start with the values.

| inhibition [%] | Compound |
| --- | --- |
| 78 | Nc1sc(-c2ccc(Cl)cc2)c(CN2CCN(c3cccc(C(F)(F)F)c3)CC2)c1C(=O)c1ccc(Cl)cc1 |
| 72 | Nc1sc(-c2ccc(Cl)cc2)c(CN2CCN(c3ccccc3)CC2)c1C(=O)c1ccc(Cl)cc1 |
| 57 | Cc1sc(N)c(C(=O)c2ccc(Cl)cc2)c1CN1CCN(c2ccccc2)CC1 |
| 54 | Cc1sc(N)c(C(=O)c2ccc(Cl)cc2)c1CN1CCN(c2cccc(Cl)c2)CC1 |

target: T1, Adenosine receptor A1 (Homo sapiens); assay: Allosteric enhancing activity at human adenosine A1 receptor expressed in CHO cells assessed as inhibition of forskolin-stimulated cAMP accumulation at 10 uM incubated for 10 mins prior to forskolin-stimulation measured after 5 mins by competition protein binding assay; type: functional, cell-based

| Compound | inhibition [%] |
| --- | --- |
| Nc1sc(-c2ccccc2)c(CN2CCN(c3ccc(OC(F)(F)F)cc3)CC2)c1C(=O)c1ccc(Cl)cc1 | 67 |
| Nc1sc(-c2ccc(Cl)cc2)c(CN2CCN(c3ccc(F)cc3)CC2)c1C(=O)c1ccc(Cl)cc1 | 71 |

Now from value to molecule:

| inhibition [%] | Compound |
| --- | --- |
| 81 | Nc1sc(-c2ccc(Cl)cc2)c(CN2CCN(c3cccc(C(F)(F)F)c3)CC2)c1C(=O)c1ccc(Cl)cc1 |
| 75 | Nc1sc(-c2ccc(Cl)cc2)c(CN2CCN(c3ccccc3)CC2)c1C(=O)c1ccc(Cl)cc1 |
| 59 | Cc1sc(N)c(C(=O)c2ccc(Cl)cc2)c1CN1CCN(c2ccccc2)CC1 |
| 58 | Cc1sc(N)c(C(=O)c2ccc(Cl)cc2)c1CN1CCN(c2cccc(Cl)c2)CC1 |
